pIC50: −log10 of the molar value. The source made the active and inactive calls. No cut-off for these calls is given here.
Experiments:
MKN-45 = assay: Antiproliferative activity against human MKN-45 cells assessed as reduction in cell viability incubated for 72 hrs measured after 4 hrs of MTT addition by MTT assay; assay type: functional, cell-based
NCI-H358 = assay: Antiproliferative activity against human NCI-H358 cells assessed as reduction in cell viability incubated for 72 hrs measured after 4 hrs of MTT addition by MTT assay; assay type: functional, cell-based
[1] = AUC (0 to infinity) in ICR mouse at 40 mg/kg, po measured upto 24 hrs by LC-MS/MS analysis; assay type: ADME, organism-based; design: route oral, dose 40 mg/kg, time <=24; conditions: in vivo
SNU-16 = assay: Antiproliferative activity against human SNU-16 cells assessed as reduction in cell viability incubated for 72 hrs measured after 4 hrs of MTT addition by MTT assay; assay type: functional, cell-based
HGC-27 [2] = assay: Antiproliferative activity against human HGC-27 cells assessed as reduction in cell viability incubated for 72 hrs measured after 4 hrs of MTT addition by MTT assay; assay type: functional, cell-based
[3] = Protein binding in plasma (unknown origin) assessed as unbound fraction; assay type: ADME, cell-free
Mus musculus = assay: In vivo inhibition of PI3Kalpha in BALB/c mouse assessed as increase in plasma insulin level at 40 mg/kg, po measured after 24 hrs; assay type: functional, organism-based
AGS = assay: Antiproliferative activity against human AGS cells assessed as reduction in cell viability incubated for 72 hrs measured after 4 hrs of MTT addition by MTT assay; assay type: functional, cell-based
HGC-27 [4] = assay: Inhibition of PI3K signalling in human HGC-27 cells assessed as reduction in AKT S473 phosphorylation incubated for 3 hrs by Western blot analysis; assay type: cell-based; conditions: dose 20-1000 nM
[5] = AUC (0 to infinity) in ICR mouse at 4 mg/kg, iv measured upto 24 hrs by LC-MS/MS analysis; assay type: ADME, organism-based; design: route intravenous, dose 4 mg/kg, time <=24; conditions: in vivo
[6] = AUC (0 to t) in ICR mouse at 40 mg/kg, po measured upto 24 hrs by LC-MS/MS analysis; assay type: ADME, organism-based; design: route oral, dose 40 mg/kg, time <=24; conditions: in vivo
SNU-638 = assay: Antiproliferative activity against human SNU-638 cells assessed as reduction in cell viability incubated for 72 hrs measured after 4 hrs of MTT addition by MTT assay; assay type: functional, cell-based
HGC-27 [7] = assay: Antitumor activity against human HGC-27 cells xenografted in BALB/c mouse assessed as tumor growth inhibition administered orally for 25 days and measured on day 25; assay type: functional; conditions: time 25.0 day
[8] = Toxicity in BALB/c mouse xenografted with human HGC-27 cells assessed as body weight reduction at 40 mg/kg, po administered for 25 days and measured on day 25; assay type: organism-based; design: scale not given: the % may be the effect or the level left; conditions: in vivo, 600 h, time 25 day
HGC-27 [9] = assay: Antitumor activity against human HGC-27 cells xenografted in BALB/c mouse assessed as tumor growth inhibition at 20 mg/kg, po administered for 25 days and measured on day 25 relative to control; assay type: functional; conditions: HGC-27, po, 600 h, time 25 day, read-out: TGI

SMILES | pIC50 (MKN-45) | pIC50 (NCI-H358) | AUC(0-inf) [1] | pIC50 (SNU-16) | pIC50 (HGC-27 [2]) | Fu [3] | inhibition (Mus musculus) | pIC50 (AGS) | inhibition (HGC-27 [4]) | AUC(0-inf) [5] | AUC(0-t) at 24 h [6] | pIC50 (SNU-638) | TGI (HGC-27 [7]) | Activity [8] | inhibition in vivo at 20 mg/kg (HGC-27 [9])
COc1ncc(-c2cc3c(N4CCOCC4)ncnc3s2)cc1NS(=O)(=O)c1ccc(F)cc1F | 5.59 | 5.28 | 187 µg·h/mL | 5.24 | 6.41 | 0.3% | inactive | 5.41 | Dose-dependent effect | 14.6 µg·h/mL | 143 µg·h/mL | 5.62 |  |  | 
COc1ncc(-c2nc3c(N4CCOCC4)ncnc3s2)cc1NS(=O)(=O)c1ccc(F)cc1F | 5.96 | 6.00 | 142 µg·h/mL | 5.51 | 7.40 | 0.3% | inactive | 6.14 | Dose-dependent effect | 25.3 µg·h/mL | 126 µg·h/mL | 6.16 | Dose-dependent effect | 14.8% | 75.5%
